What all share (format): in vivo
Assay [1] deals with leucocyte reduction in mice induced by cyclophosphamide. Briefly: Bone marrow DNA content determination, mice injected with cyclophosphamide. The following applies: cyclophosphamide model; absorbance at 268 nm, day 15; positive control batyl alcohol 100 mg/kg intragastric. As for the experimental part: (§1) Mice were randomly divided into 6 groups with 10 animals per group, i.e., normal control group, model control group, positive control group, and groups on low, medium and high doses of Composition 1. The low-, medium- and high-dose groups were intragastrically given Composition 1 at a dose of 2.0 g crude drug/kg, 4.0 g crude drug/kg, and 12.0 g crude drug/kg, respectively; the positive control group was intragastrically given batyl alcohol (100 mg/kg) at a dose of 0.1 ml/10 g body weight; the normal control group and the model control group were intragastrically given an equivalent volume of distilled water; and the dosage regime lasted for 15 days with one dose per day. From day 9 of intragastrical administration, all mice in each group, except the normal control group, were given cyclophosphamide at a dose of 40 mg/kg each day via subcutaneous injection for 3 consecutive days. One hour after the intragastrical administration on day 15, blood and femurs were harvested for tests.
A 7 mm section was dissected from the middle of the right femur. The whole bone marrow was flushed into a centrifuge tube with a 10 mL solution of 0.005 mol/L CaCl2, placed in a refrigerator at 4° C. for 30 min, and then centrifuged at 2500 r/min for 15 min. […] The supernatant was removed and its absorbance at 268 nm was measured.

Assay [2] relates to leucocyte reduction in mice induced by X-ray radiation. Briefly: Bone marrow nucleated cell count, mice after X-ray radiation. To be noted: X-ray radiation model; one femur; positive control batyl alcohol 100 mg/kg intragastric.
Assay [3] concerns leucocyte reduction in mice induced by cytarabine. Briefly: Bone marrow nucleated cell count, mice injected with cytarabine. The following applies: cytarabine model; one femur, day 15; positive control batyl alcohol 100 mg/kg intragastric. As for the experimental part: [Worded in the source for another target; used here, by the source, with some conditions changed.] as §1
Mice were sacrificed by cervical dislocation. The left femur was removed and flushed with a 10 ml solution of 3% acetic acid to obtain the cells in the bone marrow. The number of cells in 4 large grids on a hemacytometer was counted, and the number was multiplied by 2.5×10^4 to obtain the BMC in one femur. […]

Assay [4] concerns leucocyte reduction in mice induced by cyclophosphamide. The experiment in a line: Bone marrow nucleated cell count, mice injected with cyclophosphamide. The following applies: cyclophosphamide model; one femur, day 15; positive control batyl alcohol 100 mg/kg intragastric. The procedure:
as §1
Mice were sacrificed by cervical dislocation. The left femur was removed and flushed with a 10 ml solution of 3% acetic acid to obtain the cells in the bone marrow. The number of cells in 4 large grids on a hemacytometer was counted, and the number was multiplied by 2.5×10^4 to obtain the BMC in one femur.

The subject of assay [5] is leucocyte reduction in mice induced by X-ray radiation. Briefly: Peripheral leucocyte assay, leucocyte reduction in mice induced by X-ray radiation. To be noted: X-ray radiation model; positive control batyl alcohol 100 mg/kg intragastric. As for the experimental part: [Worded in the source for another target; used here, by the source, with some conditions changed.] as §1
(§2) 40 μL blood was drawn from the tail vein of the mice and transferred into a EDTA-K2 anticoagulative tube, into which 160 μL dilution liquid was added, and then assayed in an automatic blood cell analyzer. […]

For assay [6], the system named is leucocyte reduction in mice induced by cyclophosphamide. Briefly: Peripheral leucocyte assay, leucocyte reduction in mice induced by cyclophosphamide. To be noted: cyclophosphamide model; positive control batyl alcohol 100 mg/kg intragastric, 15 days. As for the experimental part: as §1
40 μL blood was drawn from the tail vein of the mice and transferred into a EDTA-K2 anticoagulative tube, into which 160 μL dilution liquid was added, and then assayed in an automatic blood cell analyzer.
Mice were randomly divided into 6 groups with 10 animals per group, i.e., normal control group, model control group, positive control group, and groups on low, medium and high doses of Composition 2. […]

Assay [7] relates to leucocyte reduction in mice induced by cytarabine. The experiment in a line: Peripheral leucocyte assay, leucocyte reduction in mice induced by cytarabine. To be noted: cytarabine model; positive control batyl alcohol 100 mg/kg intragastric, 15 days. The procedure:
[Worded in the source for another target; used here, by the source, with some conditions changed.] as §1, §2

Where “and” joins values, the source holds several entries; their conditions need not be identical. Identical values can stand only once.

As for `CCCCCCCCCCCCCCCCCCOCC(O)CO` (stereo not shown) [Positive control, batyl alcohol], in assay [1], the “Bone marrow DNA” value is 0.610 ± 0.138 and 0.629 ± 0.150 and 0.625 ± 0.162 and 0.730 ± 0.150 and 0.755 ± 0.128 and 0.958 ± 0.138. The “Bone marrow BCM” value was 13.20 ± 2.02 ×10^6 and 12.43 ± 2.29 ×10^6 and 13.69 ± 2.65 ×10^6 and 14.57 ± 2.57 ×10^6 and 13.92 ± 2.57 ×10^6 and 14.78 ± 2.44 ×10^6 in assay [2]; 12.53 ± 2.24 ×10^6 and 13.95 ± 2.77 ×10^6 and 13.64 ± 2.19 ×10^6 and 14.32 ± 2.65 ×10^6 and 13.25 ± 2.31 ×10^6 and 13.58 ± 2.17 ×10^6 in assay [3]; 13.44 ± 2.36 ×10^6 and 11.87 ± 2.08 ×10^6 and 13.65 ± 2.42 ×10^6 and 14.73 ± 2.04 ×10^6 and 14.86 ± 2.28 ×10^6 and 15.72 ± 2.34 ×10^6 in assay [4]. Moreover, in assay [5], the “WBC on day 8 after treatment” value is 3.66 ± 1.05 ×10^9 and 5.60 ± 1.28 ×10^9 and 5.87 ± 1.62 ×10^9 and 5.80 ± 1.44 ×10^9 and 5.32 ± 1.54 ×10^9 and 5.53 ± 1.28 ×10^9. Further, the “WBC on day 15 after treatment” value in assay [5] was 6.92 ± 1.98 ×10^9 and 7.04 ± 1.87 ×10^9 and 7.49 ± 1.52 ×10^9 and 7.88 ± 1.61 ×10^9 and 7.80 ± 1.43 ×10^9 and 8.03 ± 1.59 ×10^9. In addition, the WBC after modeling in assay [6] was 3.55 ± 1.21 ×10^9 and 4.64 ± 1.30 ×10^9 and 5.25 ± 1.30 ×10^9 and 6.13 ± 1.47 ×10^9 and 5.73 ± 1.60 ×10^9 and 6.25 ± 1.76 ×10^9; in assay [7] it was 3.80 ± 1.03 ×10^9 and 4.67 ± 1.27 ×10^9 and 4.90 ± 1.43 ×10^9 and 4.16 ± 1.09 ×10^9 and 4.53 ± 1.28 ×10^9 and 6.62 ± 1.52 ×10^9. Further, the WBC after treatment in assay [6] is 6.20 ± 1.82 ×10^9 and 7.34 ± 1.59 ×10^9 and 7.56 ± 1.80 ×10^9 and 8.23 ± 1.54 ×10^9 and 7.89 ± 1.60 ×10^9 and 8.96 ± 1.93 ×10^9; in assay [7], 6.54 ± 1.93 ×10^9 and 6.85 ± 1.70 ×10^9 and 7.10 ± 1.88 ×10^9 and 7.26 ± 1.90 ×10^9 and 7.54 ± 1.62 ×10^9 and 8.52 ± 1.55 ×10^9.

For the origin of these results see patent US9744203B2, “Application of composition in preparing health care product or medicine for preventing and treating leukopenia caused by radiotherapy and chemotherapy” (JIANGZHONG PHARMACEUTICAL CO., LTD., priority 2012, dated 2017).
